Assay results reported in publication PMC3639647, “Cloning, Expression, and Purification of Nucleoside Diphosphate Kinase from Acinetobacter baumannii” (Enzyme Research, 2013).

Biological target: T1, Ndk (nucleoside diphosphate kinase) (Acinetobacter baumannii, UniProt B0VKS3)
T1 construct: E. coli BL21(DE3), Ni-NTA
T1 sequence (B0VKS3 1-143): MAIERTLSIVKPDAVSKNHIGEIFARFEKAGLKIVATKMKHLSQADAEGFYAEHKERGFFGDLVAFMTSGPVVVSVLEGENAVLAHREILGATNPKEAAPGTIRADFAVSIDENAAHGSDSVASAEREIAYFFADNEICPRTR
Assay: intrinsic tryptophan/tyrosine fluorescence quenching titration (excitation […] nm)
Assay type: binding
Settings: pH 7 (neutral), 25 °C, 17 µM protein, ATP 20-100 µM

Nc1ncnc2c1ncn2[C@@H]1O[C@H](COP(=O)(O)OP(=O)(O)OP(=O)(O)O)[C@@H](O)[C@H]1O [ATP]
intrinsic tryptophan/tyrosine fluorescence quenching titration (excitation 280 n): Binding of the substrate ATP with the enzyme was confirmed by the quenching of fluorescence
